The test system of assay [1] is CAM (chorioallantoic membrane). Kind of assay: Test for angiogenic activity, CAM (chorioallantoic membrane) assay. It counts as in vivo, chicken. To be noted: for Angiogenic activity compared to the control: CAM assay, Table 3 and FIG. 5. Here is the method: NAPS-1-P 0.5%-containing liposomes and the PhS-1-P 0.5%-containing liposomes, respectively prepared in Examples 1 and 4, were assayed for angiogenesis, with the use of phosphate buffered saline as a negative control, sphingosine-1-phosphate (PS-1-P) as a positive control, and the angiogenesis inhibitor trimethyl phytosphingosine (TMP) as a suppressive control.
For angiogenesis assay, CAM (chorioallantoic membrane) was used as a model. CAM from developing chicken eggs is routinely used in biological and biomedical research to investigate angiogenesis.
Fertile hen's eggs which were within one day after being laid, were purchased. Three days later, 6 mL of the white was removed from the fertile hen's eggs using a syringe, as illustrated in i of FIG. 4. Afterward, the eggs were opened at the top, as illustrated in ii of FIG. 4. From three days after egg-laying, the embryo started to develop. The membrane surrounding the embryo is CAM. Then, a cover slip on which a test drug was dropwise loaded and dried was placed on CAM, as illustrated in iii of FIG. 4. After the lapse of three days, the eggs were examined for drug-induced angiogenesis under a microscope, as illustrated in iv of FIG. 4.

For assay [2], the system named is Balb/c mice, depilated area. In words: Test for hair growth in Balb/c mice (2), once a day for four weeks. It counts as in vivo. As to conditions: applied once a day for four weeks. From the text:
Balb/c mice, 5-6 weeks old, were purchased and shaved on the side to remove hair partially, followed by applying a depilatory cream to the shaved area to remove hair therefrom completely. The mice which were not completely depilated were excluded from the test. The suitable mice were randomly housed in cages at a population of three per cage. A total of five cages were employed.
The mice were left for one day after hair removal, and then the depilated area was coated once a day with the NAPS-1-P-containing liposomes prepared in Example 1. A total of 14 rounds of application were conducted. Hair growth was compared between treated groups and non-treated groups.
The NAPS-1-P 0.5%-containing liposomes (Example 1), the NAPS-1-P 1.0%-containing liposomes (Example 2), and the PhS-1-P 0.5%-containing liposomes (Example 4) were tested for hair growth activity in the same manner as in Experimental Example 1, with the exception that they were applied once a day for four weeks. In this context, Rogaine 5% (minoxidil 5% solution) was used as a positive control.

Setting [3] is: microscopic observation three days after placing test drug on CAM.

“Also recorded” adds a separate entry of the source.

As to `CCCCCCCCCCCCCC[C@@H](O)[C@@H](O)[C@@H](N)COP(=O)(O)O` [PhS-1-P, phytosphingosine-1-phosphate], in assay [1], the “Angiogenic activity compared to the control” value is given as “significant angiogenic activity”. Moreover, in assay [1] (setting [3]), the “Angiogenesis results: count graded + (weakly promotive of angiogenesis)” value amounted to 5, the “Angiogenesis results: count graded ++ (highly promotive of angiogenesis)” value (from here on “Angiogenesis results: count graded ++”) was 4 and the “Angiogenesis results: count graded +/− (insignificantly promotive of angiogenesis)” value is recorded as 1.
Turning to “trimethyl phytosphingosine [TMP, reference compound]”, in assay [1] (setting [3]), the “Angiogenesis results: count graded − (weakly inhibitive of angiogenesis)” value stood at 2 and the “Angiogenesis results: count graded −− (highly inhibitive of angiogenesis)” value is 8.
Regarding `CCCCCCCCCCCCC/C=C/[C@@H](O)[C@@H](N)COP(=O)(O)O` [PS-1-P, sphingosine-1-phosphate, reference compound], in assay [1] (setting [3]), the “Angiogenesis results: count graded + (weakly promotive of angiogenesis)” value is listed as 5, the “Angiogenesis results: count graded ++” value was 4 and the “Angiogenesis results: count graded +/− (insignificantly promotive of angiogenesis)” value came to 1.
As to `CCCCCCCCCCCCCC[C@@H](O)[C@@H](O)[C@H](COP(=O)(O)O)NC(C)=O` [NAPS-1-P, N-acetylphytosphingosine-1-phosphate], the “Hair growth promoting activity, comparison between substances, concentrations or with minoxidil 5% solution (FIGS. 2 and 3)” value in assay [2] is recorded as “superior of NAPS-1-P to PhS-1-P”. Moreover, in assay [1], the “Angiogenic activity compared to the control” value is “significant angiogenic activity; also recorded: peak activity”. In addition, in assay [1] (setting [3]), the “Angiogenesis results: count graded + (weakly promotive of angiogenesis)” value came to 3 and the “Angiogenesis results: count graded ++” value is on record as 7.
